Results as given in patent US20230092679A1, “MCL-1 INHIBITOR ANTIBODY-DRUG CONJUGATES AND METHODS OF USE” (NOVARTIS AG, priority 2019, published 2023).
Like-named read-outs stand apart in the source and are kept apart here.

How the values were obtained:
Type in all cases: cell-based
5979hx = test: In vitro ADC activity, AML cell lines, CellTiter-Glo (Example 20); details: 5 days
various MM cell lines = test: In vitro ADC activity, MM cell lines, CellTiter-Glo (Example 20, Table 39); details: 5 days treatment; for Amax: in %
ociaml3 = test: In vitro ADC activity, AML cell lines, CellTiter-Glo (Example 20); details: ociaml3, 5 days
molm16 = test: as above; details: molm16, 5 days
skm1 = test: as above; details: skm1, 5 days
monomac6 = test: as above; details: monomac6, 5 days
[1] = tested on: representative cancer cell lines; test: CellTiter-Glo proliferation assay (Example 6), summary over the cell lines; details: 120 h, 5 days, read-out: IC50 values (range over cell lines)
Procedure: Mcl-1 ADCs were tested on nine endogenous cancer cell lines and one isogenic cell line engineered to overexpress a target of interest. Six targets were assessed: HER2, BCMA, CD38, CD48, CD79b, and CD33. […]
The ability of Mcl-1 ADCs to inhibit cell proliferation and survival was assessed using a Promega CellTiter-Glo® proliferation assay. […] Cell viability and cell density were determined using a cell counter (Vi-Cell XR Cell Viability Analyzer, Beckman Coulter). […] Plates were incubated at 5% CO2, 37° C. for 5 days in a tissue culture incubator, after which cell viability was assessed through the addition of 25 μl of CellTiter Glo® (Promega, Cat. No. G7573), a reagent which lyses cells and measures total adenosine triphosphate (ATP) content. Plates were incubated at room temperature for 10 minutes to stabilize luminescent signals prior to reading using a luminescence reader (EnVision Multilabel Plate Reader, PerkinElmer). […]

KMS-21 BM = test: CellTiter-Glo proliferation assay (Example 6); set-up: key: **: tested but curve did not converge; details: CD38 Mcl-1 ADCs and payload P1, 5 days
Procedure: (§1) Mcl-1 ADCs were tested on nine endogenous cancer cell lines and one isogenic cell line engineered to overexpress a target of interest. Six targets were assessed: HER2, BCMA, CD38, CD48, CD79b, and CD33.
(§2) Cell lines • HER2: HCC1954 (ATCC No. CRL-2338 cultured in RPMI-1640+10% FBS) and HCC2218 (ATCC No. CRL-2343 cultured in RPMI-1640+10% FBS). • BCMA: NCI-H929 (ATCC No. CRL-9068 cultured in RPMI-1640+10% FBS+0.05 mM 2-mercaptoethanol). • CD38: A4-Fuk (JCRB No. JCRB0097 cultured in RPMI-1640+10% FBS) and KMS-21 BM (JCRB No. JCRB1185 cultured in RPMI-1640+10% FBS). • CD48: NCI-H929 (ATCC No. CRL-9068 cultured in RPMI-1640+10% FBS+0.05 mM 2-mercaptoethanol), OPM-2 (DSMZ No. ACC-50 cultured in RPMI-1640+10% FBS) and AMO1 (DSMZ No. ACC-538 cultured in RPMI-1640+20% FBS). • CD79b: RS4;11 (ATCC No. CRL-1873 cultured in RPMI-1640+10% FBS). • CD33: MOLM-13 (DSMZ No. ACC-554 cultured in RPMI-1640+10% FBS) and an isogenic cell line, AMO1-CD33 clone D2. AMO1 cell line was transfected to generate a stable AMO1 cell line expressing the exogenous protein of interest, CD33, AMO1-CD33 clone D2 (cultured in RPMI-1640+20% FBS).
(§3) The ability of Mcl-1 ADCs to inhibit cell proliferation and survival was assessed using a Promega CellTiter-Glo® proliferation assay. Cell lines were cultured in media optimal for their growth at 5% CO2, 37° C. in a tissue culture incubator. Prior to seeding for the proliferation assay, the cells were split at least 2 days before the assay to ensure optimal growth density. On the day of seeding, adherent cells were lifted off tissue culture flasks using 0.25% trypsin. Cell viability and cell density were determined using a cell counter (Vi-Cell XR Cell Viability Analyzer, Beckman Coulter). […] Cells were seeded at a density of 1,000 cells per well in 45 μl of standard growth media. Plates were incubated at 5% CO2, 37° C. overnight in a tissue culture incubator. The next day, free Mcl-1 payload (P1), targeting Mcl-1 ADCs, and non-targeting isotype ADCs were prepared at 10× in standard growth media. The prepared drug treatments were then added to the cells resulting in final concentrations of 0.0005-500 nM and a final volume of 50 μl per well. Each drug concentration was tested in quadruplets. Plates were incubated at 5% CO2, 37° C. for 5 days in a tissue culture incubator, after which cell viability was assessed through the addition of 25 μl of CellTiter Glo® (Promega, Cat. No. G7573), a reagent which lyses cells and measures total adenosine triphosphate (ATP) content. Plates were incubated at room temperature for 10 minutes to stabilize luminescent signals prior to reading using a luminescence reader (EnVision Multilabel Plate Reader, PerkinElmer). […]

A4-Fuk = test: CellTiter-Glo proliferation assay (Example 6); set-up: key: **: tested but curve did not converge; details: CD38 Mcl-1 ADCs and payload P1, 5 days
Procedure: as §1, §2, §3

COc1ccccc1-c1nccc(COc2ccccc2C[C@@H](Oc2ncnc3sc(-c4ccc(F)cc4)c(-c4ccc(OCCN5CCN(C)CC5)c(Cl)c4C)c23)C(=O)O)n1 [P1, (2R)-2-[5-[3-chloro-2-methyl-4-[2-(4-methylpiperazin-1-yl)ethoxy]phenyl]-6-(4-fluorophenyl)thieno[2,3-d]pyrimidin-4-yl]oxy-3-[2-[[2-(2-methoxyphenyl)pyrimidin-4-yl]methoxy]phenyl]propanoic acid]
GI50 (5979hx; 120 h): 1 nM
Amax (5979hx): −83
GI50 (various MM cell lines; 120 h, Ip1 cell line): 7 nM
GI50 (various MM cell lines; 120 h, u266b1 cell line): 283 nM
GI50 (various MM cell lines; Homo sapiens, AMO1, 120 h, amo1 cell line): 5 nM
GI50 (various MM cell lines; Homo sapiens, EJM, 120 h, ejm cell line): 61 nM
GI50 (various MM cell lines; Homo sapiens, KMS-11, 120 h, kms11 cell line): 98 nM
GI50 (various MM cell lines; Homo sapiens, KMS-12-BM, 120 h, kms12bm cell line): 11 nM
GI50 (various MM cell lines; Homo sapiens, L-363, 120 h, L363 cell line): 3 nM
GI50 (various MM cell lines; Homo sapiens, MOLP-8, 120 h, molp8 cell line): 1 nM
GI50 (various MM cell lines; Homo sapiens, NCI-H929, 120 h, h929 cell line): 1 nM
GI50 (various MM cell lines; Homo sapiens, OPM-2, 120 h, opm2 cell line): 1 nM
GI50 (various MM cell lines; Homo sapiens, RPMI-8226, 120 h, rpmi8226 cell line): 2 nM
GI50 (various MM cell lines; Homo sapiens, SK-MM-2, 120 h, skmm2 cell line): > 10000 nM
Amax (various MM cell lines; Ip1 cell line): −58
GI50 (various MM cell lines; KE-97, 120 h, ke97 cell line): 7910 nM
GI50 (various MM cell lines; KHM-1B, 120 h, khm1b cell line): 2 nM
GI50 (various MM cell lines; KMM-1, 120 h, kmm1 cell line): 154 nM
GI50 (various MM cell lines; KMS-20, 120 h, kms20 cell line): 8 nM
GI50 (various MM cell lines; KMS-21BM, 120 h, kms21bm cell line): 1 nM
GI50 (various MM cell lines; KMS-26, 120 h, kms26 cell line): 60 nM
GI50 (various MM cell lines; KMS-27, 120 h, kms27 cell line): 1 nM
GI50 (various MM cell lines; KMS-28BM, 120 h, kms28bm cell line): 6 nM
GI50 (various MM cell lines; KMS-34, 120 h, kms34 cell line): 498 nM
GI50 (various MM cell lines; Karpas-620, 120 h, karpas620 cell line): 205 nM
Amax (various MM cell lines; L363 cell line): −47
Amax (various MM cell lines; amo1 cell line): −20
Amax (various MM cell lines; ejm cell line): −93
Amax (various MM cell lines; h929 cell line): −74
Amax (various MM cell lines; karpas620 cell line): −43
Amax (various MM cell lines; ke97 cell line): 21
Amax (various MM cell lines; khm1b cell line): −84
Amax (various MM cell lines; kmm1 cell line): −67
Amax (various MM cell lines; kms11 cell line): −62
Amax (various MM cell lines; kms12bm cell line): −79
Amax (various MM cell lines; kms20 cell line): −88
Amax (various MM cell lines; kms21bm cell line): −76
Amax (various MM cell lines; kms26 cell line): −49
Amax (various MM cell lines; kms27 cell line): −89
Amax (various MM cell lines; kms28bm cell line): −42
Amax (various MM cell lines; kms34 cell line): −64
Amax (various MM cell lines; molp8 cell line): −74
Amax (various MM cell lines; opm2 cell line): −77
Amax (various MM cell lines; rpmi8226 cell line): −91
Amax (various MM cell lines; skmm2 cell line): 112
Amax (various MM cell lines; u266b1 cell line): −24
GI50 (ociaml3; Homo sapiens, OCI-AML-3, 120 h): 138 nM
Amax (ociaml3; unit assumed): 1%
GI50 (molm16; 120 h): 45 nM
Amax (molm16; in % (unit assumed)): −76
GI50 (skm1; Homo sapiens, SKM-1, 120 h): 119 nM
Amax (skm1; in % (unit assumed)): −49
GI50 (monomac6; Homo sapiens, MONO-MAC-6, 120 h): 1 nM
Amax (monomac6; in % (unit assumed)): −43
IC50 ([1]; HER2-positive cancer cell lines): 10 to 60 nM
IC50 ([1]; representative cancer cell lines except HER2-positive): 0.038 to 5.6 nM
Amax KMS21 BM (KMS-21 BM): **
IC50 (nM) KMS21 BM (KMS-21 BM): **
Amax A4FUK (A4-Fuk): **
IC50 (nM) A4FUK (A4-Fuk): **
